Drawing on patent publication US20240150368A1, “ULK INHIBITORS AND METHODS OF USE THEREOF” (Deciphera Pharmaceuticals, LLC, priority 2022, published 2024), this text covers IC50 for 13 compounds.

One assay concerns the target T1, ULK1 kinase (Homo sapiens, UniProt O75385, E37A/K38A).
T1 construct: (residues 1-283; ID NO: 1); purchased Beryllium
T1 sequence (O75385 1-283 E37A/K38A): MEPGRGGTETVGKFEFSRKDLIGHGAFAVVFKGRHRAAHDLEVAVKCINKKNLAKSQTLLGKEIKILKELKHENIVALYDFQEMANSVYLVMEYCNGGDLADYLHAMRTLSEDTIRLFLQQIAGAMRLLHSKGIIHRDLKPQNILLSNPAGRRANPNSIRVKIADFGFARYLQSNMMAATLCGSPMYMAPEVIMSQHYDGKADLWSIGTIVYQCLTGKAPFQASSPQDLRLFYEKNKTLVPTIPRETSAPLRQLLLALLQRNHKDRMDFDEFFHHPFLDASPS
Briefly: Biochemical assay for ULK1 (coupled pyruvate kinase/lactate dehydrogenase assay). The following applies: 1 mM ATP, 0.1 nM ULK1; read-out: ULK1 (inhibition of biochemical activity), IC50. As to the method:
Biochemical Assay for ULK1 (SEQ. ID NO: 1)
Activity of ULK1 kinase was determined spectroscopically using a coupled pyruvate kinase/lactate dehydrogenase assay that continuously monitors the ATP hydrolysis-dependent oxidation of NADH (e.g., Schindler et al. Science (2000) 289: 1938-1942). Assays were conducted in 384-well plates (100 μL final volume) using 0.1 nM ULK1 (from Beryllium), 0.075 mM peptide substrate (YANWLAASIYLDGKKK), 1.5 units pyruvate kinase, 2.1 units lactate dehydrogenase, 1 mM phosphoenol pyruvate, 0.28 mM NADH and 1 mM ATP in assay buffer (100 mM Tris, pH 7.5, 15 mM MgCl2, 0.5 mM DTT, 0.004% (w/v) BSA, and 0.004% Triton X-100). Inhibition of ULK1 was measured by adding serial diluted test compound (final assay concentration of 1% DMSO). A decrease in absorption at 340 nm was monitored continuously for 6 h at 30° C. on a multi-mode microplate reader (BioTek). The reaction rate was calculated using the 2-3 h time frame. The reaction rate at each concentration of compound was converted to percent inhibition using controls (i.e., reaction with no test compound and reaction with a known inhibitor) and IC50 values were calculated using software routines in Prism (GraphPad software).

In assay [1] the test system is ULK kinase substrate ATG13 (pS318-ATG13) in A549 (KRAS mutant) cells. Briefly: pATG13 levels of mutant KRas A549 cells after treatment with ULK inhibitors in combination with trametinib (ELISA). The assay is classed as cell-based, human. The method, then:
Cellular Inhibition of ULK Kinase Substrate ATG13 Protein pATG13 Levels of Mutant KRas A549 Cells after Treatment with ULK Inhibitors in Combination with Trametinib
(§1) A549 (KRAS mutant) human lung cancer cells (6,000 cells/well) were added to a 384-well tissue-culture treated plate in 50 μL of pre-warmed DMEM medium supplemented with 10% characterized fetal bovine serum (Invitrogen, Carlsbad, CA), 100 units/mL penicillin G, and 100 μg/mL streptomycin and allowed to grow overnight at 37° C., 5% CO2, and 95% humidity. The following day, 10 μL of media containing trametinib or DMSO as a control was added to wells. The final concentration of trametinib in wells was 250 nM. A dose response of a test compound (0.6 μL per well) was added. DMSO (0.6 μL) was added to control wells. The plate was briefly shaken to mix wells and then incubated at 37° C. overnight. The next day, the media was aspirated and cells were washed with Dulbecco's Phosphate Buffered Saline (Gibco). Cells were lysed using MPER lysis buffer (Pierce, Rockford, IL) containing Halt Phosphatase and Protease Inhibitors (Pierce, Rockford, IL) and Phosphatase inhibitor cocktail 2 (Sigma, St. Louis, MO) at 4° C. for 10 min with shaking.
(§2) Cellular levels of phospho-Serine 318 ATG13 (pATG13) were measured via an ELISA method. Total ATG13 Antibody (Cell Signaling Cat #13273) was used to coat the wells. The plate was incubated at 4° C. overnight and washed with ELISA wash buffer (Biolegend Cat #421601). The wells were then blocked with assay diluent (Biolegend Cat #421203) for 1 h at rt. Plate wells were washed with ELISA wash buffer. Cell lysate was added to wells and incubated at rt for 2 h. Plate wells were washed with ELISA wash buffer. Biotinylated pS318-ATG13 antibody (Rockland Immunochemicals Cat #600-401-C49) was diluted in assay diluent and added to each well and incubated at rt for 1 h. Plate wells were washed with ELISA wash buffer. Streptavidin linked to horseradish peroxidase (Thermo Fisher Cat #21140) was diluted in assay diluent and added to each well and incubated at rt for 1 h. Plate wells were washed with ELISA wash buffer. High sensitivity TMB substrate (Biolegend Cat #421101) was added to each well and incubated at rt for 20 min. The reaction was stopped with 2N Sulfuric Acid. The plate was analyzed at on a plate reader measuring absorbance at 450 nm and 540 nm (background). Signal was calculated by first subtracting the background absorbance at 540 nm from the absorbance at 450 nm for each well. Next, the background corrected absorbance at 450 nm from blank wells was subtracted from test wells. Data was compared to control wells to determine % ATG13 phosphorylation. GraphPad Prism was used to calculate IC50 values.
In general terms: ELISA stands for enzyme-linked immunosorbent assay.

Assay [2] deals with ULK kinase substrate ATG13 (pS318-ATG13) in MiaPaCa-2 cells. Briefly: pATG13 levels of mutant KRas MiaPaCa-2 cells after treatment with ULK inhibitors in combination with trametinib (ELISA). The format is cell-based, human. The method, then:
pATG13 Levels of Mutant KRas MiaPaCa-2 Cells after Treatment with ULK Inhibitors in Combination with Trametinib
as §1, with “MiaPaCa-2” for “A549 (KRAS mutant)”, “pancreatic” for “lung”, “(10000” for “(6,000”, “G,” for “G, and”, “streptomycin, and 2.5% Horse Serum” for “streptomycin”, “minutes” for “min”
as §2, with “2.0N sulfuric acid.” for “2N Sulfuric Acid.”

The target of another assay is T2, LRRK2 kinase (Homo sapiens, UniProt Q5S007).
T2 construct: (residues 970-2528; ID NO; 3); purchased Thermo Fisher
T2 sequence (Q5S007 with tags, fused parts or gaps): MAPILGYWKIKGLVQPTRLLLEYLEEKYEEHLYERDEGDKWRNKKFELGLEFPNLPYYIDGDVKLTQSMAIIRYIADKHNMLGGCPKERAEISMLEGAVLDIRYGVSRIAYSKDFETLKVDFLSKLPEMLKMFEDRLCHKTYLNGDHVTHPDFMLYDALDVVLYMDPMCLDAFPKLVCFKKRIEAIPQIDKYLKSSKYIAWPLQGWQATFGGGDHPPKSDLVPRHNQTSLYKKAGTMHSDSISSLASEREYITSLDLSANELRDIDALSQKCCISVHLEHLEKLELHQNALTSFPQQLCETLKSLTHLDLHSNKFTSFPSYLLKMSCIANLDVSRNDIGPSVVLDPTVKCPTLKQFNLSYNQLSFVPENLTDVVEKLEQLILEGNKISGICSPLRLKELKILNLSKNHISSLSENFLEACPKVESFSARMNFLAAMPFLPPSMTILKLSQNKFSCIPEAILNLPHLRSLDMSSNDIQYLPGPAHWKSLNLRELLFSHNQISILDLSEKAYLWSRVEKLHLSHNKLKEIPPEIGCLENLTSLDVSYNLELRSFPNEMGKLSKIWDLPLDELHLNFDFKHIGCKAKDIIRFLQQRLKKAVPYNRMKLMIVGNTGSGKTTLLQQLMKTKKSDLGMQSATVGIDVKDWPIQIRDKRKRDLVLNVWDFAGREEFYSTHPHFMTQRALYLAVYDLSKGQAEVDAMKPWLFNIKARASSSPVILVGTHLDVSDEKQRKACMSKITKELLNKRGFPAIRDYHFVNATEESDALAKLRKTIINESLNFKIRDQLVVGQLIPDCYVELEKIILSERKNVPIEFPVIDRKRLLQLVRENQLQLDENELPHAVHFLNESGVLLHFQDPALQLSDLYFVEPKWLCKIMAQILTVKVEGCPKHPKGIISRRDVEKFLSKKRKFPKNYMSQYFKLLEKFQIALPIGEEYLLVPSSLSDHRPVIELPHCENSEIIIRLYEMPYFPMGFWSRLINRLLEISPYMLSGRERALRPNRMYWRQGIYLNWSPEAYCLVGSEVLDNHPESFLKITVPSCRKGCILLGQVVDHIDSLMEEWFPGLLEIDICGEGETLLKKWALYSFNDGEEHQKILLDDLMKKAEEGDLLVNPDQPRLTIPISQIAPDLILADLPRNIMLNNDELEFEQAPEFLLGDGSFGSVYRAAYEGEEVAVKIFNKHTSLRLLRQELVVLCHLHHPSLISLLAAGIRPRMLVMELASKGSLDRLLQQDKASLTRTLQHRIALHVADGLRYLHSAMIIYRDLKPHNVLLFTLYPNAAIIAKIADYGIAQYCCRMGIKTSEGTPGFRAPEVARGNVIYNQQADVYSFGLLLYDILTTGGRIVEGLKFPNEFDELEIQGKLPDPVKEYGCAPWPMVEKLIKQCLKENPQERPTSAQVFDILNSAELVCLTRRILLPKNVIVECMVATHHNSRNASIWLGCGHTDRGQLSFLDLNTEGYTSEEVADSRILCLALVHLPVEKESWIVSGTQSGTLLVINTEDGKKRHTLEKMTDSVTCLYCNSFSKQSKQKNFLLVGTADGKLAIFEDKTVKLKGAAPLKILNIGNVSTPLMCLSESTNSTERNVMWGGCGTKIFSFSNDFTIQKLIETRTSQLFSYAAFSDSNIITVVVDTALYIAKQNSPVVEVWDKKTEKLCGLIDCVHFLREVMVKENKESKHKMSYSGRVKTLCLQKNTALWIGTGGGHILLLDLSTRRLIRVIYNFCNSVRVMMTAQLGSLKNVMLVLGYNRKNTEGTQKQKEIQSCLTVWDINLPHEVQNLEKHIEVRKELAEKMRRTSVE
Kind of assay: Biochemical assay for LRRK2 (coupled pyruvate kinase/lactate dehydrogenase assay). Particulars: 26.4 nM LRRK2, 1 mM ATP; read-out: LRRK2 (inhibition of LRRK2 kinase activity, IC50). The method, then: Biochemical Assay for LRRK2 (SEQ. ID NO. 3)
Activity of LRRK2 kinase was determined spectroscopically using a coupled pyruvate kinase/lactate dehydrogenase assay that continuously monitors the ATP hydrolysis-dependent oxidation of NADH (e.g., Schindler et al. Science (2000) 289: 1938-1942). Assays were conducted in 384-well plates (100 μL final volume) using 26.4 nM LRRK2 (Thermo Fisher), 0.1 mM peptide substrate (RLGRDKYKTLRQIRQ), 1.5 units pyruvate kinase, 2.1 units lactate dehydrogenase, 1 mM phosphoenol pyruvate, 0.28 mM NADH and 1 mM ATP in assay buffer (100 mM Tris, pH 7.5, 15 mM MgCl2, 0.5 mM DTT, 0.004% (w/v) BSA, and 0.004% Triton X-100). Inhibition of LRRK2 was measured by adding serial diluted test compound (final assay concentration of 1% DMSO). A decrease in absorption at 340 nm was monitored continuously for 6 h at 30° C. on a multi-mode microplate reader (BioTek). The reaction rate was calculated using the 2-3 h time frame. The reaction rate at each concentration of compound was converted to percent inhibition using controls (i.e., reaction with no test compound and reaction with a known inhibitor) and IC50 values were calculated using software routines in Prism (GraphPad software).

For orientation: IC50 means the midpoint of a concentration-inhibition curve. For the compound `CC/C(Nc1cnn(C2CCN(C3CCCC3)CC2)c1)=C1/C(=O)Nc2ccc(C(=O)NCC(C)C)cc21` [Example 33], the IC50 on ULK1 kinase was not above 10 nM; in assay [1], not above 100 nM; in assay [2], not above 100 nM.

Take `CC/C(Nc1cnn(C2CCN(C3CCCCC3)CC2)c1)=C1/C(=O)Nc2ccc(C(=O)NCC(C)C)cc21` [Example 34]: the IC50 at ULK1 kinase was not above 10 nM; in assay [1], not above 100 nM; in assay [2], not above 100 nM.

On to `CC/C(Nc1cnn(C2CCN(C3COC3)CC2)c1)=C1/C(=O)Nc2ccc(C(=O)NCC(C)C)cc21` [Example 35], for which the figures for the IC50 (on ULK1 kinase; in assay [1]; in assay [2]) were not above 10 nM, 300 to 600 nM and not above 100 nM, respectively.

Consider `CC/C(Nc1cnn(C2CCN(C3CCOC3)CC2)c1)=C1/C(=O)Nc2ccc(C(=O)NCC(C)C)cc21` (stereo not drawn) [Example 36], for which the figures for the IC50 (at ULK1 kinase; in assay [1]; in assay [2]) were not above 10 nM, 100 to 300 nM and not above 100 nM, respectively.

Regarding `CC/C(Nc1cnn(C2CCN(CC(C)C)CC2)c1)=C1/C(=O)Nc2ccc(C(=O)NCC(C)C)cc21` [Example 38], the IC50 on ULK1 kinase is not above 10 nM; in assay [1], not above 100 nM; in assay [2], not above 100 nM.

`CC/C(Nc1cnn(C2CCN(CC3CC3)CC2)c1)=C1/C(=O)Nc2ccc(C(=O)NCC(C)C)cc21` [Example 39]: the IC50 on ULK1 kinase is not above 10 nM; in assay [1], not above 100 nM; in assay [2] it was not above 100 nM.

Regarding `CC/C(Nc1cnn(C2CCN(CC3CCC3)CC2)c1)=C1/C(=O)Nc2ccc(C(=O)NCC(C)C)cc21` [Example 40], the IC50 at ULK1 kinase was not above 10 nM; in assay [1] it was not above 100 nM; in assay [2] it was not above 100 nM.

As to `CC/C(Nc1cnn(C2CCN(CCOC)CC2)c1)=C1/C(=O)Nc2ccc(C(=O)NCC(C)C)cc21` [Example 41], the IC50 on ULK1 kinase was not above 10 nM; in assay [1], not above 100 nM; in assay [2] it was not above 100 nM.

As for `CC/C(Nc1cnn(C2CCN(C(C)C)CC2)c1)=C1/C(=O)Nc2ccc(C(=O)NCC3CCC3)cc21` [Example 43], the IC50 on ULK1 kinase was not above 10 nM; in assay [1] it was not above 100 nM; in assay [2], not above 100 nM.

`CC/C(Nc1cccc(N2CCN(C(C)C)CC2)c1)=C1/C(=O)Nc2ccc(C(=O)NC[C@H]3CCCO3)cc21` [Example 46]: the IC50 on ULK1 kinase is 10 to 100 nM; in assay [1], 100 to 300 nM; in assay [2] it was not above 100 nM.

In the case of `CC/C(Nc1cnn(CC)c1)=C1/C(=O)Nc2ccc(C(=O)NCC3(C(F)(F)F)CC3)cc21` [Example 179], the IC50 is not above 10 nM at ULK1 kinase, not above 100 nM in assay [1] and not above 100 nM on LRRK2 kinase.

`CC/C(Nc1cnn(C(F)F)c1)=C1/C(=O)Nc2ccc(C(=O)NCC3(C(F)(F)F)CC3)cc21` [Example 180]: the IC50 is not above 10 nM on ULK1 kinase, 100 to 300 nM in assay [1] and not above 100 nM at LRRK2 kinase.

As to `CC/C(Nc1cnn(CC(F)F)c1)=C1/C(=O)Nc2ccc(C(=O)NCC3(C(F)(F)F)CC3)cc21` [Example 181], the IC50 at ULK1 kinase was not above 10 nM; in assay [1] it was not above 100 nM; at LRRK2 kinase, not above 100 nM.
